Results as given in patent US20060159735A1, “Method of reclaiming drug compound from liposomal drug manufacturing stream” (priority 2005, published 2006).

Key:
Type in all cases: physicochemical
[1] = Partitioning of HSPC and cholesterol dispersions into chloroform; settings: 1:3 CHCl3:Aq volume ratio, HPLC; for extraction efficiency with chloroform: 0.1 mg/mL cholesterol:HSPC dispersion
Procedure: Concentrations of 1 mg/mL and 0.1 mg/mL of the 2:1 molar ratio HSPC:cholesterol spray dried mix dispersions were produced. Then the mixes were extracted with chloroform and varying chloroform:aqueous ratios at 1:3, 1:1 and 3:1. […] The other ratios produced milky emulsions in the aqueous phase.
HSPC consists of two main components: PSPC (1-palmitoyl-2-stearoyl-sn-glyero-3-phosphocholine) and DSPC (1,2-distearoyl-sn-glycero-3-phosphocholine). […] For the 0.1 mg/mL dispersion the extraction was less efficient; being ˜95% for cholesterol, ˜63% for PSPC and ˜24% for DSPC.

[2] = Partitioning of HSPC and cholesterol into chloroform in the presence of OSI-7904; settings: for retained in the aqueous phase: first extraction, 17 mg/mL OSI-7904 with ~0.5 mg/mL HSPC:cholesterol mix, 1:3 CHCl3:Aq, shaking 1 hour; for amounts retained in the aqueous phase: second extraction with chloroform of the aqueous phase
Procedure: A 17 mg/mL OSI-7904 solution containing ˜0.5 mg/mL, 2:1 molar ratio HSPC:cholesterol mix was produced and extracted by mechanical shaking for 1 hour with chloroform at the 1:3 (CHCl3:Aq) ratio. Before partition the aqueous phase was hazy and yellow in color. After extraction the upper aqueous phase was clear and yellow.
The upper aqueous phase was analyzed for HSPC, cholesterol and OSI-7904. Approximately 94% of OSI-7904 was retained in the aqueous phase and approximately 2%, 8% and 8% retained of cholesterol, DSPC and PSPC respectively. This aqueous phase was extracted a second time with chloroform. The amounts retained in the aqueous phase for PSPC, DSPC and cholesterol were approximately 65%, 100% and 67% respectively for this second extraction.

[3] = Chloroform extraction of OSI-7904 solution with trace (saturated solution) HSPC and cholesterol; settings: 1.2 mg/mL OSI-7904, trace HSPC and cholesterol; 1:3 CHCl3:Aq
Excerpt: The work above had been carried out with dispersions of solid HSPC:cholesterol. It was thought that the actual permeate would only contain materials in free solution. A better model for this was considered to be saturating some water with the HSPC:cholesterol mix, filtering out the solid and working with this clarified solution. A saturated solution prepared in this way typically contained only traces of cholesterol and HSPC. It was noticed however that on one occasion when the dispersion of HSPC:cholesterol in water had been stirred continuously for approximately four days, the filtrate was opalescent and not clear and the levels of the HSPC and cholesterol were much higher. It was thought the most likely explanation for this was that initially multilamellar liposomes were formed and these were filtered out leaving only HSPC and cholesterol that are in free solution or in micelles. On extending mixing, the multilamellar liposomes are broken down to smaller particles and these are able to pass through the pores of the filter.
A 1.2 mg/mL solution of OSI-7904 was prepared containing trace levels of HSPC and cholesterol in solution (no solid present). This was extracted with chloroform in the 1:3 ratio (8.8 mL:26.5 mL, CHCl3:Aq) by manually shaking for 1 min. […] The aqueous phase was filtered through a 0.45 μm aperture filter and analyzed for OSI-7904, cholesterol and HSPC by HPLC. […]

[4] = Potentiometric titration of OSI-7904 (Sirius Glpka autotitrator), with and without chloroform; solubility
Excerpt: The ability of OSI-7904 to partition into chloroform as a function of pH was studied using a Sirius Glpka autotitrator. Attempts were first made to determine the pKas of the OSI-7904 drug substance using the Sirius autotitrator, since these values are required when determining the partition coefficients by potentiometric titration. […] It is usual practice, with a compound of low solubility, to titrate the compound with various amounts of cosolvent present to determine apparent pKas and then perform an extrapolation back to 100% aqueous to calculate the true thermodynamic pKa. However, even with cosolvent (methanol) present, precipitation of the drug was still a problem and reproducible data sets were not obtained. […] As a result, extraction of OSI-7904 with chloroform is not a practical proposition since large volumes of chloroform would be required to solubilise the drug.
In this case, the Bjerrum plot is for the titration of 10 mL of 0.33 mM OSI-7904 aqueous solution in the presence of 5 mL chloroform. Titration started at low pH. The sharp change in slope at pH˜4.5 and lack of symmetry in the curve is indicative of undissolved compound present which then dissolves as the pH is increased.

extraction efficiency with chloroform [1] [%] | retained in the aqueous phase [2] | amounts retained in the aqueous phase [2] | levels after extraction with chloroform ([1]; 1 mg/mL cholesterol:HSPC dispersion) | change in concentration in the aqueous phase after extraction with chloroform [3] | solubility in aqueous media ([4]; at low pHs) | solubility in chloroform ([4]; even at low pH, titration in presence of chloroform) | solubility ([4]; with aqueous solution present during titration, organic solvent or mixture, from Bjerrum plot, titration of 10 mL 0.33 mM aqueous solution in presence of 5 mL chloroform) [µg/mL] | Compound
~24 | ~8% | ~100% | – | – | – | – | – | CCCCCCCCCCCCCCCCCC(=O)OC[C@H](COP(=O)([O-])OCC[N+](C)(C)C)OC(=O)CCCCCCCCCCCCCCCCC [DSPC, 1,2-distearoyl-sn-glycero-3-phosphocholine]
~63 | ~8% | approximately 65% | – | – | – | – | – | CCCCCCCCCCCCCCCCCC(=O)O[C@H](COC(=O)CCCCCCCCCCCCCCC)COP(=O)([O-])OCC[N+](C)(C)C [PSPC, 1-palmitoyl-2-stearoyl-sn-glyero-3-phosphocholine]
~95 | approximately 2% | ~67% | undetectable | no decrease | – | – | – | CC(C)CCC[C@@H](C)[C@H]1CC[C@H]2[C@@H]3CC=C4C[C@@H](O)CC[C@]4(C)[C@H]3CC[C@]12C [cholesterol]
– | Approximately 94% | – | – | – | very insoluble | very low | < 400 | Cc1nc2ccc3ccc(CNc4ccc5c(c4)CN([C@@H](CCC(=O)O)C(=O)O)C5=O)cc3c2c(=O)[nH]1 [OSI-7904]
